Data set [1] concerns T. gondii RH-dTom. The data set can be described thus: Activity against T. gondii RH-dTom. In kind it is cell-based, Toxoplasma gondii.
A short description of data set [2]: Aqueous solubility by nephelometry. The format is physicochemical. Conditions: for Sol6.5: pH 6.5 phosphate buffer.
Data set [3] is described as follows: In vitro intrinsic clearance in human liver microsomes. The format is in vitro ADME. In general terms: Liver microsomes are a subcellular fraction often used to study metabolism.
Data set [4] deals with T. cruzi CYP51 (Trypanosoma cruzi, UniProt Q7Z1V1). The data set can be described thus: T. cruzi CYP51 heme ligand binding. Conditions: Soret band.
Chain of T. cruzi CYP51 (Q7Z1V1 whole entry): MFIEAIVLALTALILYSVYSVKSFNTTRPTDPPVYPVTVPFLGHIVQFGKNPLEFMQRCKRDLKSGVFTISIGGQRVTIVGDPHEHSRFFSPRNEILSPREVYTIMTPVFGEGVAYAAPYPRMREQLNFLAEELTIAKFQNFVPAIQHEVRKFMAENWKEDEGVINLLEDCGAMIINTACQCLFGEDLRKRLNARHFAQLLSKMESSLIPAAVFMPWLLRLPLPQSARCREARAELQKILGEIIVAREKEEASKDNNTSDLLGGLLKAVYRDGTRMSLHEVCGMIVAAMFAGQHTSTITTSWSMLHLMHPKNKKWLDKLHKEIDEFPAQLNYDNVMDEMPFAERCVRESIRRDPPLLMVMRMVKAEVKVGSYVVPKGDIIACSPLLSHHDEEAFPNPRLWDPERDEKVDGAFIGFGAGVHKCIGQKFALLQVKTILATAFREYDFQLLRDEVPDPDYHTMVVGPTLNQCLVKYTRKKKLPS
Data set [5] relates to panel of cancer cell lines. Conditions: read-out: IC50 against a panel of cancer cell lines; previously reported; cited from earlier work.
The nature of data set [6]: Cytotoxicity screen, growth inhibition of HFF cells. Conditions: human.
Data set [7] can be described thus: Cytotoxicity screen, growth inhibition of HC-04 cells. Conditions: human.
Data set [8] has as its system L. donovani MHOM-ET 67/L82. The data set can be described thus: Activity against L. donovani amastigotes, axenic assay.
Data set [9] can be described thus: Cytotoxicity screen, growth inhibition of HEK 293T cells. Conditions: human, Cytotoxicity IC50 HEK 293T, human kidney.
Data set [10] has as its system Tulahuen C4 strain of Trypanosoma cruzi. The data set can be described thus: microbe, parasite or virus in culture. Conditions: read-out: T. cruzi IC50.

Where only a bound is given, the exact number is not on record here.

The source of these data is PMC6892603 (Bioorganic & medicinal chemistry letters, 2019).

A word on the microsomal CLint: it is the rate of metabolic loss divided by the concentration. Higher therefore signals faster metabolism. In general, IC50 refers to the concentration at which inhibition is half-maximal. In the case of `CN1CCN(c2ccc(S(=O)(=O)NCc3ccc(C(=O)Nc4cccnc4)cc3)cc2)CC1` [Compound 2], the “Effect on growth of Toxoplasma gondii” value in data set [1] is given as “no effect on the growth”. Also, the Sol6.5 in data set [2] lay in the range of 25 to 50 µg/mL. The compound further came in with an intrinsic metabolic clearance (microsomal CLint) in data set [3] of 45 µL/min/mg. Further, the “T. cruzi CYP51 spectral response” value in data set [4] is reported as “moderate type II spectral response”. The figures for the IC50 in data set [5], in data set [6] and in data set [7] were 0.01 to 1 µM, > 50 µM and > 50 µM, respectively. The “Effect on growth of Leishmania donovani” value in [8] is “no effect on the growth”.
In turn, `O=C(Nc1cccnc1)c1ccc(CNS(=O)(=O)c2ccc(N3CCOCC3)cc2)cc1` [Compound 5] came in with a Sol2.0 in data set [2] (0.01 M HCl (approx. pH 2.0)) of 50 to 100 µg/mL. Further, in data set [2], the Sol6.5 lay in the range of 12.5 to 25 µg/mL. The same compound showed an intrinsic metabolic clearance (microsomal CLint) in data set [3] of 69 µL/min/mg. The IC50 in [7] is > 50 µM; in [9], < 1 µM.
Consider `Cc1ncccc1NC(=O)c1ccc(CNS(=O)(=O)c2ccc(N3CCN(C)CC3)cc2)cc1` [Compound 14], for which the “T. cruzi CYP51 spectral response” value in data set [4] is on record as “did not cause any changes”.
`CN1CCN(c2ccc(S(=O)(=O)NCc3ccc(-c4nc(-c5cccnc5)no4)cc3)cc2)CC1` [Compound 19]: in data set [2], the Sol6.5 is 25 to 50 µg/mL. Further, the half-inhibitory concentration (IC50) in data set [6] and in data set [7] was > 50 µM throughout.
As for `O=C(Cn1ccnc1[N+](=O)[O-])NCc1ccccc1` [benznidazole], the half-maximal inhibitory concentration (IC50) in data set [10] is 1.2 to 4.2 µM.
